# Several values for one entry are separate records, joined by “and”; a condition that tells them apart may be missing. Equal values may be shown once. Toxic doses and inconclusive results are not listed.
# System: P388 leukemia ip, CD2F1 mice, survival T/C
# Assay: NCI In Vivo Anticancer Drug Screen. Data for tumor model P388 Leukemia (intraperitoneal) in CD2F1 (CDF1) mice
# Conditions: endpoint: median survival time, higher = longer survival
# Procedure, shortened: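 Mice carrying the transplanted tumor received test compound or vehicle. Survival was recorded in each group, and the value is the treated-group measurement divided by that of the vehicle-treated control group.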
# [1] = dose: 50.0 mg/kg/injection, schedule: Q01DX009 (ip), vehicle: saline with Tween-80
# [2] = dose: 100.0 mg/kg/injection, schedule: Q01DX009 (ip), vehicle: saline with Tween-80
# [3] = dose: 200.0 mg/kg/injection, schedule: Q01DX009 (ip), vehicle: saline with Tween-80
# [4] = dose: 50.0 mg/kg/injection, schedule: Q01DX009 (ip), vehicle: saline
# [5] = dose: 100.0 mg/kg/injection, schedule: Q01DX009 (ip), vehicle: saline
# [6] = dose: 200.0 mg/kg/injection, schedule: Q01DX009 (ip), vehicle: saline
# [7] = dose: 100.0 mg/kg/injection, schedule: Q04DX003 (ip), vehicle: saline
# [8] = dose: 200.0 mg/kg/injection, schedule: Q04DX003 (ip), vehicle: saline
# [9] = dose: 50.0 mg/kg/injection, schedule: Q01DX005 (ip), vehicle: Klucel (hydroxypropylcellulose) (HPC)
# [10] = dose: 100.0 mg/kg/injection, schedule: Q01DX005 (ip), vehicle: Klucel (hydroxypropylcellulose) (HPC)
# [11] = dose: 200.0 mg/kg/injection, schedule: Q01DX005 (ip), vehicle: Klucel (hydroxypropylcellulose) (HPC)
# [12] = dose: 12.5 mg/kg/injection, schedule: Q01DX009 (ip), vehicle: Klucel (hydroxypropylcellulose) (HPC)
# [13] = dose: 25.0 mg/kg/injection, schedule: Q01DX009 (ip), vehicle: Klucel (hydroxypropylcellulose) (HPC)
# [14] = dose: 50.0 mg/kg/injection, schedule: Q01DX009 (ip), vehicle: Klucel (hydroxypropylcellulose) (HPC)
# [15] = dose: 60.0 mg/kg/injection, schedule: Q01DX005 (ip), vehicle: saline with Tween-80
# [16] = dose: 120.0 mg/kg/injection, schedule: Q01DX005 (ip), vehicle: saline with Tween-80
# [17] = dose: 240.0 mg/kg/injection, schedule: Q01DX005 (ip), vehicle: saline with Tween-80
# [18] = dose: 100.0 mg/kg/injection, schedule: Q04DX002 (ip), vehicle: saline with Tween-80
# [19] = dose: 2.5 mg/kg/injection, schedule: Q01DX009 (ip), vehicle: saline with Tween-80
# [20] = dose: 5.0 mg/kg/injection, schedule: Q01DX009 (ip), vehicle: saline with Tween-80
# [21] = dose: 10.0 mg/kg/injection, schedule: Q01DX009 (ip), vehicle: saline with Tween-80
# [22] = dose: 50.0 mg/kg/injection, schedule: Q01DX005 (ip), vehicle: saline with Tween-80
# [23] = dose: 100.0 mg/kg/injection, schedule: Q01DX005 (ip), vehicle: saline with Tween-80
# [24] = dose: 200.0 mg/kg/injection, schedule: Q01DX005 (ip), vehicle: saline with Tween-80
compound,measurement,setting,value
c1ccc2cc3c(ccc4ccccc43)cc2c1,T/C,"dose: 25.0 mg/kg/injection, schedule: Q04DX003 (ip), vehicle: other",99 % of control
same,T/C,[1],100 % of control
same,T/C,"dose: 50.0 mg/kg/injection, schedule: Q04DX003 (ip), vehicle: other",104 % of control
same,T/C,[2],97 % of control
same,T/C,"dose: 100.0 mg/kg/injection, schedule: Q04DX003 (ip), vehicle: other",99 % of control
same,T/C,[3],103 % of control
same,T/C,"dose: 200.0 mg/kg/injection, schedule: Q04DX003 (ip), vehicle: other",96 % of control
same,T/C,"dose: 400.0 mg/kg/injection, schedule: Q04DX003 (ip), vehicle: other",96 % of control
COCCCN(Cc1cc(OC)c(OC)c(OC)c1)C(=S)Nc1cccc(Cl)c1,T/C,[4],92 % of control
same,T/C,[5],90 % of control
same,T/C,[6],94 % of control
O=C1OC(=O)c2c(Br)c(Br)c(Br)c(Br)c21,T/C,[7],100 % of control
same,T/C,[8],100 % of control
same,T/C,"dose: 400.0 mg/kg/injection, schedule: Q04DX003 (ip), vehicle: saline",104 % of control
Nc1ccnc(Sc2ncccc2[N+](=O)[O-])n1,T/C,[9],100 % of control
same,T/C,[10],100 % of control
same,T/C,[11],93 % of control
Cc1cc2nc(N(C)C)cc(N(C)C)c2cc1C,T/C,[12],115 % of control
same,T/C,[13],109 % of control
same,T/C,[14],100 % of control and 105 % of control
COc1cccc2c1[C@@]1(C)C3C(=O)OC(C)(c4ccccc43)[C@@]1(C)C2=O (some centres not stated),T/C,[15],108 % of control
same,T/C,[16],110 % of control
same,T/C,[17],103 % of control
COCOc1c(C)ccc2c1CCC2,T/C,[18],91 % of control
same,T/C,"dose: 200.0 mg/kg/injection, schedule: Q04DX002 (ip), vehicle: saline with Tween-80",97 % of control
same,T/C,"dose: 400.0 mg/kg/injection, schedule: Q04DX002 (ip), vehicle: saline with Tween-80",95 % of control
Cc1cc([N+](=O)[O-])c(C)cc1Cl,T/C,"dose: 37.5 mg/kg/injection, schedule: Q04DX003 (ip), vehicle: saline sonified",118 % of control
same,T/C,"dose: 75.0 mg/kg/injection, schedule: Q04DX003 (ip), vehicle: saline sonified",100 % of control
same,T/C,"dose: 150.0 mg/kg/injection, schedule: Q04DX003 (ip), vehicle: saline sonified",118 % of control
COc1cc2c[n+](C)c3c4cc(OC)c(OC)cc4c(O)cc3c2cc1OC,T/C,[9],99 % of control
same,T/C,[10],97 % of control
same,T/C,[11],99 % of control
COC(=O)NC(=S)Nc1nnc(C)s1,T/C,"dose: 25.0 mg/kg/injection, schedule: Q04DX003 (ip), vehicle: saline with Tween-80",103 % of control
same,T/C,"dose: 50.0 mg/kg/injection, schedule: Q04DX003 (ip), vehicle: saline with Tween-80",256 % of control
same,T/C,"dose: 100.0 mg/kg/injection, schedule: Q04DX003 (ip), vehicle: saline with Tween-80",105 % of control
O=C(CBr)Nc1c(Br)cc(F)cc1Br,T/C,[1],100 % of control
same,T/C,[2],92 % of control
same,T/C,[3],100 % of control
N#CC1(O)CCCCC1,T/C,[19],100 % of control
same,T/C,[20],104 % of control
same,T/C,[21],104 % of control
Cn1c(CCCCCCCCc2c(C(=O)/C=C/c3ccccc3)c(=O)n(C)c(=O)n2C)c(C(=O)/C=C\c2ccccc2)c(=O)n(C)c1=O,T/C,[22],88 % of control
same,T/C,[23],90 % of control
same,T/C,[24],90 % of control
CNc1ccc2[nH]c3ccccc3c2c1,T/C,[15],104 % of control
same,T/C,[16],112 % of control
same,T/C,[17],104 % of control
Oc1cc2c(cc1C/C=C/c1ccccc1)OCO2,T/C,[19],101 % of control
same,T/C,[20],103 % of control
same,T/C,[21],101 % of control
O=C(Nc1ccc(Cl)cc1)Nc1nccs1,T/C,"dose: 12.5 mg/kg/injection, schedule: Q01DX009 (ip), vehicle: distilled water + Tween-80",100 % of control
same,T/C,"dose: 25.0 mg/kg/injection, schedule: Q01DX009 (ip), vehicle: distilled water + Tween-80",109 % of control
same,T/C,"dose: 50.0 mg/kg/injection, schedule: Q01DX009 (ip), vehicle: distilled water + Tween-80",111 % of control
same,T/C,"dose: 100.0 mg/kg/injection, schedule: Q01DX009 (ip), vehicle: distilled water + Tween-80",118 % of control
CCN(CCNc1ccc(C)c2sc3cc(Cl)ccc3c(=O)c12)CC(C)(C)O,T/C,"dose: 12.5 mg/kg/injection, schedule: Q01DX005 (ip), vehicle: saline with Tween-80",95 % of control
same,T/C,"dose: 25.0 mg/kg/injection, schedule: Q01DX005 (ip), vehicle: saline with Tween-80",92 % of control
same,T/C,[22],88 % of control and 97 % of control
same,T/C,[24],95 % of control
CO/C=C(\C(=O)OC)c1ccccc1,T/C,[14],100 % of control
same,T/C,"dose: 100.0 mg/kg/injection, schedule: Q01DX009 (ip), vehicle: Klucel (hydroxypropylcellulose) (HPC)",106 % of control
same,T/C,"dose: 200.0 mg/kg/injection, schedule: Q01DX009 (ip), vehicle: Klucel (hydroxypropylcellulose) (HPC)",106 % of control
CC(=O)NC(C)C(C)(C)O (configuration not stated),T/C,[4],96 % of control
same,T/C,[5],118 % of control
same,T/C,[6],105 % of control
same,T/C,"dose: 400.0 mg/kg/injection, schedule: Q01DX009 (ip), vehicle: saline",105 % of control
C/C(=N\NC(=S)N1CCCC1)c1ccc[nH]1,T/C,[9],102 % of control
same,T/C,[10],114 % of control
same,T/C,[11],89 % of control
S=C(S)N1CCOCC1,T/C,"dose: 50.0 mg/kg/injection, schedule: Q04DX003 (ip), vehicle: saline",100 % of control
same,T/C,[7],100 % of control
same,T/C,[8],100 % of control
CCOC([O-])=N/C(C)=N/[n+]1ccccc1,T/C,[4],104 % of control
same,T/C,[5],104 % of control
same,T/C,[6],98 % of control
CSc1cccc(NC(=O)OC2CCCCCCCCCCC2)c1,T/C,[1],89 % of control
same,T/C,[2],89 % of control
same,T/C,[3],92 % of control
O=c1c2ccccc2nc(-c2ccc(Cl)cc2)n1O,T/C,[22],92 % of control
same,T/C,[23],88 % of control
O=C(Cc1ccc(CC(=O)NCCCCc2ccccc2)cc1)NCCCCc1ccccc1,T/C,[15],88 % of control
same,T/C,[16],88 % of control
same,T/C,[17],86 % of control
CC(C)(C)C1=CC(=O)C(C#N)=C(C#N)C1=O,T/C,"dose: 6.25 mg/kg/injection, schedule: Q01DX009 (ip), vehicle: saline with Tween-80",95 % of control
same,T/C,"dose: 12.5 mg/kg/injection, schedule: Q01DX009 (ip), vehicle: saline with Tween-80",109 % of control
same,T/C,"dose: 25.0 mg/kg/injection, schedule: Q01DX009 (ip), vehicle: saline with Tween-80",100 % of control
COc1cc2c(c(O)c1O)C(=O)c1c(O)cc(C)cc1C2=O,T/C,[20],108 % of control
same,T/C,[21],117 % of control
same,T/C,"dose: 20.0 mg/kg/injection, schedule: Q01DX009 (ip), vehicle: saline with Tween-80",108 % of control
O=S(=O)(c1ccc(Cl)cc1)N(Cl)Cl,T/C,"dose: 6.25 mg/kg/injection, schedule: Q01DX009 (ip), vehicle: Klucel (hydroxypropylcellulose) (HPC)",107 % of control
same,T/C,[12],100 % of control
same,T/C,[13],101 % of control and 116 % of control
same,T/C,[14],105 % of control
O=C(O)CCSCCCCCCCCCCSCCC(=O)O,T/C,[9],98 % of control
same,T/C,[10],93 % of control
same,T/C,[11],86 % of control
O=C(CS(=O)(=O)O)c1ccccc1,T/C,"dose: 25.0 mg/kg/injection, schedule: Q04DX002 (ip), vehicle: saline with Tween-80",100 % of control
same,T/C,"dose: 50.0 mg/kg/injection, schedule: Q04DX002 (ip), vehicle: saline with Tween-80",106 % of control
same,T/C,[18],94 % of control and 97 % of control
COc1ccc(Br)cc1C(Nc1nncs1)Nc1nncs1,T/C,"dose: 30.0 mg/kg/injection, schedule: Q01DX005 (ip), vehicle: saline with Tween-80",93 % of control
same,T/C,[15],87 % of control and 89 % of control
same,T/C,[16],92 % of control
same,T/C,[17],90 % of control

# Reference: PubChem BioAssay AID330 (DTP/NCI, 2004)
